# Several values for one entry are separate records, joined by “and”; a condition that tells them apart may be missing. Identical values can stand only once. Like-named read-outs stand apart in the source and are kept apart here.
# How the values were obtained:
# [1] = molecular target: T1, Drosophila OR47a (Drosophila melanogaster, UniProt P81921); assay: Calcium ion fluorescence (GCaMP6) assay, OR47a stable HEK293 cell line; format: cell-based; settings: for Average response / OR47a response (VUAA1-normalized) at 1 μM / OR47a response (VUAA1-normalized) at 10 μM / OR47a response (VUAA1-normalized) at 100 μM: OR47a cell line; for Average response: mean of biological replicates; for OR47a response (VUAA1-normalized) at 1 μM: VOC concentration 1 μM; for OR47a response (VUAA1-normalized) at 10 μM: VOC concentration 10 μM; for OR47a response (VUAA1-normalized) at 100 μM: VOC concentration 100 μM
# T1 construct: expressed in transfected cells
# T1 sequence (P81921 1-385): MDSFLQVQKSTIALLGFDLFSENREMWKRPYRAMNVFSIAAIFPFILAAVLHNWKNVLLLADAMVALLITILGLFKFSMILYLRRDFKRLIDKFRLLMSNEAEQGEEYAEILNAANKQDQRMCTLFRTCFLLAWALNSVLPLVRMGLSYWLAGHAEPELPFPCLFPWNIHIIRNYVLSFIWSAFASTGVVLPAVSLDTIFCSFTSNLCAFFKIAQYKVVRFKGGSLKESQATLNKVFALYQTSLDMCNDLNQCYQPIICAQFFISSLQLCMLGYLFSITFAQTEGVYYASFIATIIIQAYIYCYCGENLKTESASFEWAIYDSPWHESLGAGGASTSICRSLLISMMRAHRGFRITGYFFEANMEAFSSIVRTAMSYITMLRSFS
# T1 sequence (Q9VNB5 1-486 partner): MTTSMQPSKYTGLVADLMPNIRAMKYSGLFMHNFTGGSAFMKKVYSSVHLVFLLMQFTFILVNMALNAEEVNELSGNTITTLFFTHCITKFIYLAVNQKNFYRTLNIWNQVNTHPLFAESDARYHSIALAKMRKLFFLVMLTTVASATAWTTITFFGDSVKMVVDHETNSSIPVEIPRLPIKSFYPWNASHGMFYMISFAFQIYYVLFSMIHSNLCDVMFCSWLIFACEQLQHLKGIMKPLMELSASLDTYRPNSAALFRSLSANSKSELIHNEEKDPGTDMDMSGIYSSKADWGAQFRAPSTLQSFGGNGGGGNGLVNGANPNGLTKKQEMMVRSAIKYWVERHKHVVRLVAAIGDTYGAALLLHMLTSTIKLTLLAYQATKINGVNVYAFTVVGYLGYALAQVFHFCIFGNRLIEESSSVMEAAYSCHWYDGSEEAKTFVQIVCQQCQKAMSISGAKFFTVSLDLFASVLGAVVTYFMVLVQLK
# Summary of the method: (§1)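 Responses are VUAA1-normalized ΔF: each VOC-evoked calcium signal, (FMAX−F0)/F0 over 30 s after injection, divided by the same line's mean 50 µM VUAA1 response. Cells were doxycycline-induced HEK293 with GCaMP6 and the cognate Drosophila OR, in HEPES buffer pH 7.3; ligands tested 0.01–100 μM.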
# [2] = molecular target: T2, Drosophila OR10a (Drosophila melanogaster, UniProt Q9VYZ1); assay: Calcium ion fluorescence (GCaMP6) assay, OR10a stable HEK293 cell line; format: cell-based; settings: for OR10a response (VUAA1-normalized) at 1 μM / OR10a response (VUAA1-normalized) at 10 μM / OR10a response (VUAA1-normalized) at 100 μM: OR10a cell line; for OR10a response (VUAA1-normalized) at 1 μM: VOC concentration 1 μM; for OR10a response (VUAA1-normalized) at 10 μM: VOC concentration 10 μM; for OR10a response (VUAA1-normalized) at 100 μM: VOC concentration 100 μM; for DF norm AVERAGE OR10a: threshold 0.05, below shown as 0
# T2 construct: expressed in transfected cells
# T2 sequence (Q9VYZ1 1-406): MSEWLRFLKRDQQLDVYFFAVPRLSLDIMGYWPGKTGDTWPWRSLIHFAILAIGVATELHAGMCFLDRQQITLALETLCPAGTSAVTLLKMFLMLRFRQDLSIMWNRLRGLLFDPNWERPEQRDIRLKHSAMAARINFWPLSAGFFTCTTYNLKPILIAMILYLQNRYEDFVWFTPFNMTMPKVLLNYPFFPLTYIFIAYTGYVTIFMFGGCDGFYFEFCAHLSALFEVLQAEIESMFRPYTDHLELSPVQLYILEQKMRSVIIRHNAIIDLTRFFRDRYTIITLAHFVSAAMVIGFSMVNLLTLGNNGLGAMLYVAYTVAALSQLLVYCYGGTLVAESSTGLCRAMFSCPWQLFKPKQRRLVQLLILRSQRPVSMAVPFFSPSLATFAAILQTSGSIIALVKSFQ
# T2 sequence (Q9VNB5 1-486 partner): T1 sequence (Q9VNB5 1-486 partner)
# Summary of the method: as §1
# [3] = HEK293, read-out: OR47a response (VUAA1-normalized response)
# [4] = HEK293, 1 μM VOC, 50 μM VUAA1 = 1, responses not exceeding 0.05 considered 0, read-out: OR10a Average response (VUAA1-normalized)
# [5] = HEK293, 10 μM VOC, 50 μM VUAA1 = 1, responses not exceeding 0.05 considered 0, read-out: OR10a Average response (VUAA1-normalized)
# [6] = HEK293, 100 μM VOC, 50 μM VUAA1 = 1, responses not exceeding 0.05 considered 0, read-out: OR10a Average response (VUAA1-normalized)
# [7] = HEK293, read-out: OR10a response (VUAA1-normalized response), VOC concentration 1 μM
# [8] = HEK293, read-out: OR10a response (VUAA1-normalized response), VOC concentration 10 μM
# [9] = HEK293, read-out: OR10a response (VUAA1-normalized response), VOC concentration 100 μM
# [10] = HEK293, read-out: OR47a Average response (VUAA1-normalized)
# [11] = ligand concentration 1 (unit not given), threshold 0.05, below shown as 0
# [12] = ligand concentration 10 (unit not given), threshold 0.05, below shown as 0
# [13] = ligand concentration 100 (unit not given), threshold 0.05, below shown as 0
# [14] = ligand concentration 1 (unit not given)
# [15] = ligand concentration 10 (unit not given)
# [16] = ligand concentration 100 (unit not given)
# [17] = HEK293, read-out: OR10a Average response (VUAA1-normalized), 1 μM VOC, 50 μM VUAA1 = 1, responses not exceeding 0.05 considered 0
# [18] = HEK293, read-out: OR10a Average response (VUAA1-normalized), 10 μM VOC, 50 μM VUAA1 = 1, responses not exceeding 0.05 considered 0
# [19] = HEK293, read-out: OR10a Average response (VUAA1-normalized), 100 μM VOC, 50 μM VUAA1 = 1, responses not exceeding 0.05 considered 0
compound,measurement,setting,value
Cc1ccc(O)cc1 [4-methylphenol],activation at 1 µM,[1]; [3],10%
same,activation at 10 µM,[1]; [3],0%
same,activation at 100 µM,[1]; [3],5.42%
same,Average response,[1]; odorant cc. 1 µM,0.10
same,Average response,[1]; odorant cc. 10 µM,0.0217
same,Average response,[1]; odorant cc. 100 µM,0.0542
same,DF norm AVERAGE OR47a,"[1]; concentration 1, normalized fluorescence change, values below 0.05 threshold given as 0",0.1
same,DF norm AVERAGE OR47a,"[1]; concentration 10, normalized fluorescence change, values below 0.05 threshold given as 0",0
same,DF norm AVERAGE OR47a,"[1]; concentration 100, normalized fluorescence change, values below 0.05 threshold given as 0",0.05422
same,activation at 1 µM,[2]; [4],2.37%
same,activation at 10 µM,[2]; [5],1.81%
same,activation at 100 µM,[2]; [6],6.62%
same,activation at 1 µM,[2]; [7],0%
same,activation at 10 µM,[2]; [8],0%
same,activation at 100 µM,[2]; [9],6.62%
COC(=O)c1ccccc1O [methyl salicylate],activation at 1 µM,[1]; [10],11%
same,activation at 10 µM,[1]; [10],1%
same,activation at 100 µM,[1]; [10],14%
same,OR47a response (VUAA1-normalized) at 1 μM,[1],0.11
same,OR47a response (VUAA1-normalized) at 10 μM,[1],0.00
same,OR47a response (VUAA1-normalized) at 100 μM,[1],0.14
same,Average response,[1]; odorant cc. 1 µM,0.11
same,Average response,[1]; odorant cc. 10 µM,0.00759
same,Average response,[1]; odorant cc. 100 µM,0.14
same,DF norm AVERAGE OR47a,[1]; [11],0.1126
same,DF norm AVERAGE OR47a,[1]; [12],0
same,DF norm AVERAGE OR47a,[1]; [13],0.1364
same,EC50,"[2]; AVERAGE EC50, from the average LOG EC50 of 5 biological replicates, unit inferred",75.5 nM
same,EC50,"[2]; EC50, FITTED AVERAGE CURVE, fit of the averaged dose-response curve, unit inferred",68.6 nM
same,EC50,"[2]; EC50, OR10a cell line, fitted Hill equation, Hill coefficient constrained to 1, maximal response max 1",80 nM
same,EC50,"[2]; EC50 AVERAGE (arithmetic average of fitted EC50), average of 5 biological replicates, unit inferred",90.1 nM
same,activation at 1 µM,[2]; [4],49%
same,activation at 10 µM,[2]; [5],55%
same,activation at 100 µM,[2]; [6],95%
same,Emax,"[2]; HEK293, read-out: VUAA1 normalized MAX response",44%
same,"n, FITTED AVERAGE CURVE",[2]; Hill coefficient of the fit of the averaged curve,0.855
same,OR10a response (VUAA1-normalized) at 1 μM,[2],0.49
same,OR10a response (VUAA1-normalized) at 10 μM,[2],0.55
same,OR10a response (VUAA1-normalized) at 100 μM,[2],0.95
same,AVERAGE MAX,[2]; average of 5 biological replicates,0.4437
same,"response, AVERAGE","[2]; concentration 0.008, average of biological replicates",0.06886
same,"response, AVERAGE","[2]; concentration 0.016, average of biological replicates",0.1014
same,"response, AVERAGE","[2]; concentration 0.032, N 1",0.1576
same,"response, AVERAGE","[2]; concentration 0.075, average of biological replicates",0.2051
same,"response, AVERAGE","[2]; concentration 0.15, average of biological replicates",0.2778
same,"response, AVERAGE","[2]; concentration 0.3, average of biological replicates",0.4027
same,"response, AVERAGE","[2]; concentration 0.6, average of biological replicates",0.307
same,"response, AVERAGE","[2]; concentration 1.25, average of biological replicates",0.417
same,"response, AVERAGE","[2]; concentration 2.5, average of biological replicates",0.471
same,"response, AVERAGE","[2]; concentration 5, average of biological replicates",0.4362
same,"response, AVERAGE","[2]; concentration 10, average of biological replicates",0.4759
same,"response, AVERAGE","[2]; concentration 20, average of biological replicates",0.4313
same,"response, AVERAGE","[2]; concentration 40, average of biological replicates",0.3644
same,"MAX, fitted average curve",[2]; fit of the averaged dose-response curve,0.4394
same,MAX (fitted parameter),"[2]; individual biological replicates, normalized response",0.4829 and 0.2572 and 0.5237 and 0.5964 and 0.3582
same,DF norm AVERAGE OR10a,[2]; [14],0.4904
same,DF norm AVERAGE OR10a,[2]; [15],0.5549
same,DF norm AVERAGE OR10a,[2]; [16],0.9525
C=C1CCC2CC1C2(C)C (stereo not drawn) [beta-pinene],activation at 1 µM,[1]; [3],0%
same,activation at 10 µM,[1]; [3],0%
same,activation at 100 µM,[1]; [3],0%
same,Average response,[1]; odorant cc. 1 µM,0.00
same,Average response,[1]; odorant cc. 10 µM,0.00
same,Average response,[1]; odorant cc. 100 µM,0.00
same,DF norm AVERAGE OR47a,[1]; [11],0
same,DF norm AVERAGE OR47a,[1]; [12],0
same,DF norm AVERAGE OR47a,[1]; [13],0
same,activation at 1 µM,[2]; [17],2.77%
same,activation at 10 µM,[2]; [18],4%
same,activation at 100 µM,[2]; [19],9%
same,activation at 1 µM,[2]; [7],0%
same,activation at 10 µM,[2]; [8],0%
same,activation at 100 µM,[2]; [9],9%
same,DF norm AVERAGE OR10a,[2]; [14],0
same,DF norm AVERAGE OR10a,[2]; [15],0
same,DF norm AVERAGE OR10a,[2]; [16],0.0885
C=C1CCC2(C(C)C)CC12 (stereo not shown) [sabinene],OR47a response (VUAA1-normalized) at 1 μM,[1],0.00
same,OR47a response (VUAA1-normalized) at 10 μM,[1],0.00
same,OR47a response (VUAA1-normalized) at 100 μM,[1],0.00
same,Average response,[1]; odorant cc. 1 µM,0.00
same,Average response,[1]; odorant cc. 10 µM,0.00
same,Average response,[1]; odorant cc. 100 µM,0.00
same,DF norm AVERAGE OR47a,[1]; [11],0
same,DF norm AVERAGE OR47a,[1]; [12],0
same,DF norm AVERAGE OR47a,[1]; [13],0
same,activation at 1 µM,[2]; [17],0%
same,activation at 10 µM,[2]; [18],0%
same,activation at 100 µM,[2]; [19],3.23%
same,OR10a response (VUAA1-normalized) at 1 μM,[2],0.00
same,OR10a response (VUAA1-normalized) at 10 μM,[2],0.00
same,OR10a response (VUAA1-normalized) at 100 μM,[2],0.00
same,DF norm AVERAGE OR10a,[2]; [14],0
same,DF norm AVERAGE OR10a,[2]; [15],0
same,DF norm AVERAGE OR10a,[2]; [16],0

# Reference: paper PMC10709440, “High-throughput ligand profile characterization in novel cell lines expressing seven heterologous insect olfactory receptors for the detection of volatile plant biomarkers” (Scientific Reports, 2023)
